How the values were obtained:
CYP2D6 = molecular target: T1, CYP2D6 (Homo sapiens, UniProt P10635); experiment: CYP450 enzyme inhibition in liver microsomes (cocktail probe incubation); assay type: in vitro ADME; settings: species not given, 0.05-50 μM tested
T1 construct: studied in liver microsomes of CD-1 mouse, Sprague Dawley rat, Beagle dog, cynomolgus monkey, and human; from tissue; host or cells: liver microsomes
Description: (§1) The inhibition potential of test compounds towards major drug metabolizing CYP450 enzymes was studied in liver microsomes of CD-1 mouse, Sprague Dawley rat, Beagle dog, cynomolgus monkey, and human. The inhibition of CYP1A2, CYP2C9, CYP2C19, CYP2D6, and CYP3A4 was assessed using CYP450 specific probe reactions in a cocktail incubation. Seven concentrations of test compounds (0.05, 0.15, 0.5, 1.5, 5, 15, and 50 μM) were evaluated. In addition, known inhibitors for each probe reaction were included as positive controls and incubated at a single concentration above their respective IC50.

CYP2C19 = molecular target: T2, CYP2C19 (Homo sapiens, UniProt P33261); experiment: as above; assay type: in vitro ADME; settings: species not given, 0.05-50 μM tested
T2 construct: studied in liver microsomes of CD-1 mouse, Sprague Dawley rat, Beagle dog, cynomolgus monkey, and human; from tissue; host or cells: liver microsomes
T2 sequence (P33261 whole entry): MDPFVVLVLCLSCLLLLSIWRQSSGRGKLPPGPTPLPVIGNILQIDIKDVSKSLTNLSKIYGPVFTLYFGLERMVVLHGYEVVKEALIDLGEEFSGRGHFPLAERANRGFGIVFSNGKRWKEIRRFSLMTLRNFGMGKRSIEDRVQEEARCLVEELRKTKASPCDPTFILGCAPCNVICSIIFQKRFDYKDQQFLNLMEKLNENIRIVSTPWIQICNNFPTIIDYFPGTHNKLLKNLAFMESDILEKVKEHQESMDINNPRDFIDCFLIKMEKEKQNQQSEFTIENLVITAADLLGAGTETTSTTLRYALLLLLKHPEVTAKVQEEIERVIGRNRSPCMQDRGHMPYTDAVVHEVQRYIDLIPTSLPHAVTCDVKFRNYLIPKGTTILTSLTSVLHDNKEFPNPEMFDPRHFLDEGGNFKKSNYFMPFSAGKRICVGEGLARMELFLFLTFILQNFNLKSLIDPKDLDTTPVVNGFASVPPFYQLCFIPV
Description: as §1

CYP3A4 = molecular target: T3, CYP3A4 (Homo sapiens, UniProt P08684); experiment: as above; assay type: in vitro ADME; settings: species not given, 0.05-50 μM tested
T3 construct: studied in liver microsomes of CD-1 mouse, Sprague Dawley rat, Beagle dog, cynomolgus monkey, and human; from tissue; host or cells: liver microsomes
T3 sequence (P08684 whole entry): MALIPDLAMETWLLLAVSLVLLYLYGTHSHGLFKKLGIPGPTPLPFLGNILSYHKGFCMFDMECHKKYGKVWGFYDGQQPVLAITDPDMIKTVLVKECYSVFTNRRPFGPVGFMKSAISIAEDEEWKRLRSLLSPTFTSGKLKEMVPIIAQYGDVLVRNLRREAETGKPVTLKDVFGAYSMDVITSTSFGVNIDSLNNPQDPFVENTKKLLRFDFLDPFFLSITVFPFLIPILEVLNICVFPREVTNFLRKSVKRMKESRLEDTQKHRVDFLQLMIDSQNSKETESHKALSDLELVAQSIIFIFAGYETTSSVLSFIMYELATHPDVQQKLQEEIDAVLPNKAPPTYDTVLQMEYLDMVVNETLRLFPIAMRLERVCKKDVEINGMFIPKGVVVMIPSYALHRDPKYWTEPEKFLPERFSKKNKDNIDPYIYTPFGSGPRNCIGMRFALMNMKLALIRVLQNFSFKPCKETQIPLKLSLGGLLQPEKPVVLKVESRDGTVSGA
Description: as §1

CYP1A2 = molecular target: T4, CYP1A2 (Homo sapiens, UniProt P05177); experiment: as above; assay type: in vitro ADME; settings: species not given, 0.05-50 μM tested
T4 construct: studied in liver microsomes of CD-1 mouse, Sprague Dawley rat, Beagle dog, cynomolgus monkey, and human; from tissue; host or cells: liver microsomes
T4 sequence (P05177 1-516): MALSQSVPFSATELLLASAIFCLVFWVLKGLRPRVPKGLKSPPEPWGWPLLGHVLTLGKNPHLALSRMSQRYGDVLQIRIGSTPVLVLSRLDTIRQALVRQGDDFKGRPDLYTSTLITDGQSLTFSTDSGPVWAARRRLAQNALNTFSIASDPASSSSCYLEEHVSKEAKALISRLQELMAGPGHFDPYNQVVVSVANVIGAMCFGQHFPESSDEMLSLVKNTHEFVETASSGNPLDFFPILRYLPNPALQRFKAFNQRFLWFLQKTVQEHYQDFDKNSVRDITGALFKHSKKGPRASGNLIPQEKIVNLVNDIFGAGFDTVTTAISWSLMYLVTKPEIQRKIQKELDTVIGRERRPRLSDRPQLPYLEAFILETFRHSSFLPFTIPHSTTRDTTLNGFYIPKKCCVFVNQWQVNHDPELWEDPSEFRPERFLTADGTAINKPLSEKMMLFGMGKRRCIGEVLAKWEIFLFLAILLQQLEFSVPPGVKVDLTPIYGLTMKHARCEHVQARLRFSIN
Description: as §1

CYP2C9 = molecular target: T5, CYP2C9 (Homo sapiens, UniProt P11712); experiment: as above; assay type: in vitro ADME; settings: species not given, 0.05-50 μM tested
T5 construct: studied in liver microsomes of CD-1 mouse, Sprague Dawley rat, Beagle dog, cynomolgus monkey, and human; from tissue; host or cells: liver microsomes
T5 sequence (P11712 whole entry): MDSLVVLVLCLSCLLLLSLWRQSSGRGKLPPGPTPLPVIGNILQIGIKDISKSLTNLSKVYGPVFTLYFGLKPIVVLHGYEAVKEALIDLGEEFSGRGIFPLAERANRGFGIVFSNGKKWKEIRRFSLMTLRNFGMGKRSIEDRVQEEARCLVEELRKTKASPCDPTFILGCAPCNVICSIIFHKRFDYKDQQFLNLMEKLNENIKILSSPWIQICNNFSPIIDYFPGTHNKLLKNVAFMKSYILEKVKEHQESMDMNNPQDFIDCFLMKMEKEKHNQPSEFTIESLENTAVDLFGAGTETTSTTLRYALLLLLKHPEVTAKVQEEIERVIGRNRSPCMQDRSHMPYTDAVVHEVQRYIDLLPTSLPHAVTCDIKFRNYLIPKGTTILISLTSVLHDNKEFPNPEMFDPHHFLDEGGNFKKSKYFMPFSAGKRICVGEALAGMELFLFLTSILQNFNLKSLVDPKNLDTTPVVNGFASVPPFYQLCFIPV
Description: as §1

[1] = test system: IFNγ-induced NO production in Raw 264.7 cells; experiment: Nitric oxide assay: suppression of IFNγ-induced NO production (Griess nitrite, adjusted to live cell numbers); assay type: cell-based; settings: Mus musculus, RAW264.7, 2 h pretreatment, IFNγ 10 ng/ml for 24 hours
Description: Raw 264.7 cells were seeded in 96-well plates at a density of 30, 000 cells per well in DMEM+10% FBS and incubated overnight. The next day, cell media was replaced by DMEM+2% FBS. Cells were pretreated with DMSO or test compounds (top dose 100 nM, 1:4 serial dilution, 10-point) for 2 hours and then treated with recombinant mouse IFNγ (R&D, Cat# 485-MI-100) at a final concentration of 10 ng/ml for 24 hours. Nitrite levels were measured in culture media as a surrogate for nitric oxide using the Griess Reagent System (Promega, Cat# G2930). Cell viability was determined using CellTiter Glo reagents (Promega, Cat#G7572). The nitrite levels were adjusted to live cell numbers and inhibition percentage was calculated. The inhibition percentage was then plotted against compound concentration, and IC50 values were calculated using four-parameter algorithm in Graphpad Prism.

T1 sequence (P10635 whole entry): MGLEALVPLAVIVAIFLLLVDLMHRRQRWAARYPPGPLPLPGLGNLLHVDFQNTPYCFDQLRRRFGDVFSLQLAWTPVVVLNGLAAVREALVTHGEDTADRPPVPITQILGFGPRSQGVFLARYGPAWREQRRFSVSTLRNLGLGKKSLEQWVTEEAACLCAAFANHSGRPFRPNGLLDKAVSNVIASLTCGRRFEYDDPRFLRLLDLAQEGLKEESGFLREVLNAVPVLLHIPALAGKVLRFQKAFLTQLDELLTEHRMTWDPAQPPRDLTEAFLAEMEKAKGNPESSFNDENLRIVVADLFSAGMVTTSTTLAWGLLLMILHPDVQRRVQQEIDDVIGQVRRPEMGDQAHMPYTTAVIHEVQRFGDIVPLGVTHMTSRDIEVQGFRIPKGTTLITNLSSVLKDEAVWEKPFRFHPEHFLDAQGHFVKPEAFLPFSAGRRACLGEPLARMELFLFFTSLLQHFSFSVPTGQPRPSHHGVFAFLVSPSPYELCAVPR

Row | IC50 (CYP2D6) | IC50 (CYP2C19) | IC50 (CYP3A4) | IC50 (CYP1A2) | IC50 (CYP2C9) | IC50 [1] | Structure (SMILES)
1 | 6.9 µM | 5.6 µM | 0.5 µM | > 50 µM | 2.1 µM | < 0.01 µM | CC1(C)C(=O)C(C#N)=C[C@]2(C)C3=CC(=O)[C@@H]4[C@@H]5C[C@@](C)(c6ncco6)CC[C@]5(C)CC[C@@]4(C)[C@]3(C)CC[C@@H]12 [Example 6, (4aR,6aS,6bR,8aS,11S,12aS,12bR,14bS)-4,4,6a,6b,8a,11,14b-heptamethyl-11-(oxazol-2-yl)-3,13-dioxo-3,4,4a,5,6,6a,6b,7,8,8a,9,10,11,12,12a,12b,13,14b-octadecahydropicene-2-carbonitrile]
2 | 10.1 µM | 9.4 µM | 0.8 µM | > 50 µM | 2 µM | < 0.01 µM | Cc1cnc([C@@]2(C)CC[C@]3(C)CC[C@]4(C)[C@H](C(=O)C=C5[C@@]6(C)C=C(C#N)C(=O)C(C)(C)[C@@H]6CC[C@]54C)[C@@H]3C2)o1 [Example 7, (4aR,6aS,6bR,8aS,11S,12aS,12bR,14bS)-4,4,6a,6b,8a,11,14b-heptamethyl-11-(5-methyloxazol-2-yl)-3,13-dioxo-3,4,4a,5,6,6a,6b,7,8,8a,9,10,11,12,12a,12b,13,14b-octadecahydropicene-2-carbonitrile]
3 |  |  |  |  |  | 0.01 to 0.1 µM | CC1(C)C(=O)C(C#N)=C[C@]2(C)C3=CC(=O)[C@@H]4[C@@H]5C[C@@](C)(c6nc(-c7ccccc7)n[nH]6)CC[C@]5(C)CC[C@@]4(C)[C@]3(C)CC[C@@H]12 [Example 8, (4aR,6aS,6bR,8aS,11S,12aS,12bR,14bS)-4,4,6a,6b,8a,11,14b-heptamethyl-3,13-dioxo-11-(3-phenyl-1H-1,2,4-triazol-5-yl)-3,4,4a,5,6,6a,6b,7,8,8a,9,10,11,12,12a,12b,13,14b-octadecahydropicene-2carbonitrile]
4 | > 50 µM | 27.5 µM | 1.3 µM | > 50 µM | 1.8 µM | < 0.01 µM | CC1(C)C(=O)C(C#N)=C[C@]2(C)C3=CC(=O)[C@@H]4[C@@H]5C[C@@](C)(c6nnc(C(F)(F)F)o6)CC[C@]5(C)CC[C@@]4(C)[C@]3(C)CC[C@@H]12 [Example 10, (4aR,6aS,6bR,8aS,11S,12aS,12bR,14bS)-4,4,6a,6b,8a,11,14b-heptamethyl-3,13-dioxo-11-(5-(trifluoromethyl)-1,3,4-oxadiazol-2-yl)-3,4,4a,5,6,6a,6b,7,8,8a,9,10,11,12,12a,12b,13,14b-octadecahydropicene-2-carbonitrile]
5 | > 50 µM | 14.6 µM | 0.5 µM | > 50 µM | 2.2 µM | < 0.01 µM | CC1(C)C(=O)C(C#N)=C[C@]2(C)C3=CC(=O)[C@@H]4[C@@H]5C[C@@](C)(N6CCOCC6)CC[C@]5(C)CC[C@@]4(C)[C@]3(C)CC[C@@H]12 [Example 11, (4aR,6aS,6bR,8aS,11S,12aS,12bR,14bS)-4,4,6a,6b,8a,11,14b-heptamethyl-11-morpholino-3,13-dioxo-3,4,4a,5,6,6a,6b,7,8,8a,9,10,11,12,12a,12b,13,14b-octadecahydropicene-2-carbonitrile]
6 | 14.7 µM | 7.4 µM | 1.5 µM | > 50 µM | 2 µM | < 0.01 µM | CC1(C)C(=O)C(C#N)=C[C@]2(C)C3=CC(=O)[C@@H]4[C@@H]5C[C@@](C)(c6nnc(C7CC7)o6)CC[C@]5(C)CC[C@@]4(C)[C@]3(C)CC[C@@H]12 [Example 16, (4aR,6aS,6bR,8aS,11S,12aS,12bR,14bS)-11-(5-cyclopropyl-1,3,4-oxadiazol-2-yl)-4,4,6a,6b,8a,11,14b-heptamethyl-3,13-dioxo-3,4,4a,5,6,6a,6b,7,8,8a,9,10,11,12,12a,12b,13,14b-octadecahydropicene-2-carbonitrile]
7 | 35.4 µM | 16.9 µM | 0.1 µM | > 50 µM | 2.2 µM |  | CC1(C)C(=O)C(C#N)=C[C@]2(C)C3=CC(=O)[C@@H]4[C@@H]5C[C@@](C)(n6cnnc6)CC[C@]5(C)CC[C@@]4(C)[C@]3(C)CC[C@@H]12 [Example 17, (4aR,6aS,6bR,8aS,11S,12aS,12bR,14bS)-4,4,6a,6b,8a,11,14b-heptamethyl-3,13 dioxo-11-(4H-1,2,4-triazol-4-yl)-3,4,4a,5,6,6a,6b,7,8,8a,9,10,11,12,12a,12b,13,14b-octadecahydropicene-2-carbonitrile]
8 |  |  |  |  |  | 0.01 to 0.1 µM | CC1(C)C(=O)C(C#N)=C[C@]2(C)C3=CC(=O)[C@@H]4[C@@H]5C[C@@](C)(N6CCCC6)CC[C@]5(C)CC[C@@]4(C)[C@]3(C)CC[C@@H]12 [Example 21, (4aR,6aS,6bR,8aS,11S,12aS,12bR,14bS)-4,4,6a,6b,8a,11,14b-heptamethyl-3,13-dioxo-11-(pyrrolidin-1-yl)-3,4,4a,5,6,6a,6b,7,8,8a,9,10,11,12,12a,12b,13,14b-octadecahydropicene-2-carbonitrile]
9 | 15.8 µM | 11.8 µM | 0.9 µM | > 50 µM | 1.5 µM | 0.01 to 0.1 µM | C[C@H](O)c1nnc([C@@]2(C)CC[C@]3(C)CC[C@]4(C)[C@H](C(=O)C=C5[C@@]6(C)C=C(C#N)C(=O)C(C)(C)[C@@H]6CC[C@]54C)[C@@H]3C2)o1 [Example 23, (4aR,6aS,6bR,8aS,11S,12aS,12bR,14bS)-11-(5-((S)-1-hydroxyethyl)-1,3,4-oxadiazol-2-yl)-4,4,6a,6b,8a,11,14b-heptamethyl-3,13-dioxo-3,4,4a,5,6,6a,6b,7,8,8a,9,10,11,12,12a,12b,13,14b-octadecahydropicene-2-carbonitrile]
10 | 4 µM | 2.8 µM | 0.5 µM | > 50 µM | 0.6 µM | < 0.01 µM | CNC(=O)c1nnc([C@@]2(C)CC[C@]3(C)CC[C@]4(C)[C@H](C(=O)C=C5[C@@]6(C)C=C(C#N)C(=O)C(C)(C)[C@@H]6CC[C@]54C)[C@@H]3C2)o1 [Example 24, 5-((2S,4aS,6aR,6bS,8aR,12aS,14aR,14bS)-11-cyano-2,4a,6a,6b,9,9,12a-heptamethyl-10,14-dioxo-1,2,3,4,4a,5,6,6a,6b,7,8,8a,9,10,12a,14,14a,14b-octadecahydropicen-2-yl)-N-methyl-1,3,4-oxadiazole-2-carboxamide]
11 |  |  |  |  |  | 0.01 to 0.1 µM | CC1(C)C(=O)C(C#N)=C[C@]2(C)C3=CC(=O)[C@@H]4[C@@H]5C[C@@](C)(c6nnc(N)o6)CC[C@]5(C)CC[C@@]4(C)[C@]3(C)CC[C@@H]12 [Example 27, (4aR,6aS,6bR,8aS,11S,12aS,12bR,14bS)-11-(5-amino-1,3,4-oxadiazol-2-yl)-4,4,6a,6b,8a,11,14b-heptamethyl-3,13-dioxo-3,4,4a,5,6,6a,6b,7,8,8a,9,10,11,12,12a,12b,13,14b-octadecahydropicene-2-carbonitrile]
